Where a name gives a salt, the structure may show the parent alone.
Biological target: T1, telomerase (catalytic subunit TERT) (Homo sapiens, UniProt O14746)
T1 construct: with telomerase RNA component TER (endogenous telomerase ribonucleoprotein in MCF7 lysate)
Test: q-TRAP-ligand assay in MCF7 cell lysate, compound added before telomere elongation
Assay type: biochemical

T1 sequence (O14746 whole entry): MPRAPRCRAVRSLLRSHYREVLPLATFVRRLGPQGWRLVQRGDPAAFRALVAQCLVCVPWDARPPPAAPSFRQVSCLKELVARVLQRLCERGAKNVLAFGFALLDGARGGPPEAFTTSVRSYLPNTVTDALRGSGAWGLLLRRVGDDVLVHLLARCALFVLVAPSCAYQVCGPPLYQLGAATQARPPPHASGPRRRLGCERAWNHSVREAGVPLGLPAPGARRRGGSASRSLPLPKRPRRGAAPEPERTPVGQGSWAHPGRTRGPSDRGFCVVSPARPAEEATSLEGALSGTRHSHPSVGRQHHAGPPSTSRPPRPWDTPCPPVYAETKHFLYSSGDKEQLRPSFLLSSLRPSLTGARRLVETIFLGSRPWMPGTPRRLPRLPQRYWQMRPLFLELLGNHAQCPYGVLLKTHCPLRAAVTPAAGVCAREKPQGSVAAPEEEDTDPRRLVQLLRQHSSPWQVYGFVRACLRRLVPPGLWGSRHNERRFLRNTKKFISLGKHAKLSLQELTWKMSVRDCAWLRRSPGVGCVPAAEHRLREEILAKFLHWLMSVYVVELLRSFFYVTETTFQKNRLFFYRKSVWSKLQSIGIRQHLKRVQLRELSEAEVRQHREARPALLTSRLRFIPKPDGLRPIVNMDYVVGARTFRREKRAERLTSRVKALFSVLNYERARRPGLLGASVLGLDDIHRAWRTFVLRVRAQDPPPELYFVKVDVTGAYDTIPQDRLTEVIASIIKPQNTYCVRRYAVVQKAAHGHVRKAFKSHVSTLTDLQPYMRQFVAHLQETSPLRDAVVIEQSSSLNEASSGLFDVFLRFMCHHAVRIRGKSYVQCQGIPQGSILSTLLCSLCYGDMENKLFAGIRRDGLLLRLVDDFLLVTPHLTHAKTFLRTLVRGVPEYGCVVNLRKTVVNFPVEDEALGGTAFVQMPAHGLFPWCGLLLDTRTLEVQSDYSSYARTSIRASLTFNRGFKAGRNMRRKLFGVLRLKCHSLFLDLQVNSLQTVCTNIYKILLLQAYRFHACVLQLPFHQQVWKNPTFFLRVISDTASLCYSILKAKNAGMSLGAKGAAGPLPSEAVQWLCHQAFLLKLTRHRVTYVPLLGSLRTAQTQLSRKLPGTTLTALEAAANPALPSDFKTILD

Row | SMILES | IC50
1 | COc1cc2c(ccc3c(CCN(C)Cc4ccccc4)cc(O)c(OC)c32)cc1O [BSB, N-benzylsecoboldine hydrochloride] | 0.17 ± 0.1 µM
2 | COc1cc2c(cc1O)C[C@H]1c3c(cc(O)c(OC)c3-2)CCN1C [Boldine, 1,10-dimethoxy-2,9-dihydroxyaporphine] | 68 ± 2.5 µM

Reference: article PMC5979471, “Telomerase Inhibition by a New Synthetic Derivative of the Aporphine Alkaloid Boldine” (International Journal of Molecular Sciences, 2018)
